Measured values: US20080275058A1, “N-Substituted-1H-Quinoline-2,4-Diones, Preparation Method Thereof, And Pharmaceutical Composition Containing The Same” (KOREA RESEARCH INSTITUTE OF CHEMICAL TECHNOLOGY, priority 2005, published 2008)
Where two headings read alike, the source gives them in different places.

Tests used:
5-HT7 = molecular target: T1, 5-HT7 (Homo sapiens, UniProt P34969); assay: Radioligand binding, 5-HT7 ([3H]LSD); conditions: Table 4; [3H]LSD 3 nM; read-out: Binding affinity, IC50 (nM) 5-HT7
T1 construct: purchased Euroscreen/BioSignal Packard Inc
T1 sequence (P34969 whole entry): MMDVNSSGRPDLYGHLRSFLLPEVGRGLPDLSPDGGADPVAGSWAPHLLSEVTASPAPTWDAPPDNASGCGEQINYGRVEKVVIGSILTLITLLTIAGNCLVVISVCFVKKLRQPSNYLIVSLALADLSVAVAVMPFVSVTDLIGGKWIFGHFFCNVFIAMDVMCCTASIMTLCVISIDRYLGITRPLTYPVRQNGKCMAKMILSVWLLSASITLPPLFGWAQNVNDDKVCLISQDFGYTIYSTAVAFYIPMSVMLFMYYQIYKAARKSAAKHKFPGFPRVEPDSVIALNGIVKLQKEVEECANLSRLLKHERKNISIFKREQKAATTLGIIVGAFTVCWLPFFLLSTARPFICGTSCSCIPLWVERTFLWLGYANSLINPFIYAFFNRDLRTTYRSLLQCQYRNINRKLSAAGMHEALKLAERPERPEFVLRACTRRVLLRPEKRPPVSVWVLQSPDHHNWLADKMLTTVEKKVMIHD

hD3 = molecular target: T2, hD3 (Homo sapiens, UniProt P35462); assay: Radioligand binding, dopamine D3 ([3H]spiperone); conditions: Table 4; [3H]spiperone 1 nM; read-out: Binding affinity, IC50 (nM) D3
T2 construct: purchased BioSignal Packard Inc., Montreal, Canada
T2 sequence (P35462 whole entry): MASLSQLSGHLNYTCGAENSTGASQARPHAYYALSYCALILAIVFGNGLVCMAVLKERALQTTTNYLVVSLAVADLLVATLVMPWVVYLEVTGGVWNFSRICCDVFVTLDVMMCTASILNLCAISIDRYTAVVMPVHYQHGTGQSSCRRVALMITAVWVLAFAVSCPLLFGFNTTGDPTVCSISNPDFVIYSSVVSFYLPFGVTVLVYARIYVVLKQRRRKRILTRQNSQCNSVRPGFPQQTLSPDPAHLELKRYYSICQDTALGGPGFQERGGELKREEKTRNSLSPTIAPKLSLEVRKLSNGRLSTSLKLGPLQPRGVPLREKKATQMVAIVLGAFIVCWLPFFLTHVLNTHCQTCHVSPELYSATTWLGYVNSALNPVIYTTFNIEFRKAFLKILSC
Procedure, shortened: (§1)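 Membrane competition binding with [3H]spiperone (1 nM) for hD2L and hD3, or [3H]YM-09151-2 (0.06 nM) for hD4.2, each in receptor-specific Tris-HCl pH 7.4 buffer containing Mg2+/EDTA (D3 and D4 also with K+, Ca2+; D3 with 120 mM NaCl). Compounds were tested at 7-8 concentrations in duplicate, and IC50 was derived by nonlinear regression across three assays.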

hD4.2 receptor = molecular target: T3, hD4.2 receptor (Homo sapiens, UniProt P21917, DEL265-296); assay: Radioligand binding, dopamine D4 ([3H]YM-09151-2); conditions: Table 4; [3H]YM-09151-2 0.06 nM; read-out: Binding affinity, IC50 (nM) D4
T3 construct: purchased BioSignal Packard Inc., Montreal, Canada
T3 sequence (P21917 with tags, fused parts or gaps DEL265-296): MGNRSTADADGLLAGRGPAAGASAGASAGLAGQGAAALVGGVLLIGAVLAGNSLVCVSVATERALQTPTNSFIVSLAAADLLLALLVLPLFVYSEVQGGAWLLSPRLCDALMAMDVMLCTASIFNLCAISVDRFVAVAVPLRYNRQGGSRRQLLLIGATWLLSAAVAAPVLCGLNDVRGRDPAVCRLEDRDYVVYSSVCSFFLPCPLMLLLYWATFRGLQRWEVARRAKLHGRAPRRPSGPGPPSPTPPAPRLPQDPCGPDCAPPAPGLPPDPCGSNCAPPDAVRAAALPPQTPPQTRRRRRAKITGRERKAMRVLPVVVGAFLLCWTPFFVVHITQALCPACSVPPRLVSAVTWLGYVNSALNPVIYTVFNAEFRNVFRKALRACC
Procedure, shortened: as §1

mice = assay: Rotarod deficit in mice; type: in vivo, mouse
Experimental: (§2) The mouse was placed on a 1 inch diameter knurled plastic rod rotating at 6 rpm (Ugo-Basile, Milano, Italy), and the rotarod deficit (%) was obtained by counting the number of animals fallen from the rotating rod within 1 min [Dunham et al., 1957] at 60, 90 and 120 min after the injection of the compound according to the invention(200, 300 or 400 ? ). […] The compounds of the examples were suspended in 3% Tween 80 solution, and were administered (p.o.) 60 min before the testing.

Rotarod deficit in mice = type: in vivo, mouse; conditions: mouse, in vivo, po, unit printed as image, read-out: TD50 (median neurotoxic dose)
Experimental: as §2

[1] = molecular target: T4, Human serotonin 5-HT6 receptor (Homo sapiens, UniProt P50406); assay: [3H]LSD binding assay on cloned 5-HT6 receptor membranes; conditions: for binding affinity at 5-HT6 receptor labeled by [3H]LSD, in words: comment on Table 2
T4 construct: made in house; host or cells: insect Sf21 cells (baculovirus vector BacPAK8)
T4 sequence (P50406 whole entry): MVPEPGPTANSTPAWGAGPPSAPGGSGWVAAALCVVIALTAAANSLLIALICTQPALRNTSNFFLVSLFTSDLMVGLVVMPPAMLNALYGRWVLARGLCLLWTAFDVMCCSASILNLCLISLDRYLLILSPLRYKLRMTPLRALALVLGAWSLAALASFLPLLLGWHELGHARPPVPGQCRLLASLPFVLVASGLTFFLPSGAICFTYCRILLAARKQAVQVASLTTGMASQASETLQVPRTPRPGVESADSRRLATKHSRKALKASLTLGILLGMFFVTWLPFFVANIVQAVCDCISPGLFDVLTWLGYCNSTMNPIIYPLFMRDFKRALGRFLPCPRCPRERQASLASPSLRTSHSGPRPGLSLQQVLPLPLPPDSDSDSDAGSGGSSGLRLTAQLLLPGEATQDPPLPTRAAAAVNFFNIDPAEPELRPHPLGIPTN

D1 = D1 (Homo sapiens, UniProt P21728); assay: Radioligand binding, dopamine D1; conditions: Table 4; read-out: Binding affinity, IC50 (nM) D1
Chain of D1 (P21728 whole entry): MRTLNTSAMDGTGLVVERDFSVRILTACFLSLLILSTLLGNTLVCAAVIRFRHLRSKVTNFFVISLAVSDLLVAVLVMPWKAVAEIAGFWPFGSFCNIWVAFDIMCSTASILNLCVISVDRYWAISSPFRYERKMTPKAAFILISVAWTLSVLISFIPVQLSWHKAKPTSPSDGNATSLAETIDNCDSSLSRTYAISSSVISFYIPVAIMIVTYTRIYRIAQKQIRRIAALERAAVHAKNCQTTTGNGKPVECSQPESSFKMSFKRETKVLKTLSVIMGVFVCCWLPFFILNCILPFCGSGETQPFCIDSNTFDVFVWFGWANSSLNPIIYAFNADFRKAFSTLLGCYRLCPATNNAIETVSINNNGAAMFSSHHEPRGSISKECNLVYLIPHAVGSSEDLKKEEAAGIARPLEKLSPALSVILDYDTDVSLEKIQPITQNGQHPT

5-HT2a = molecular target: T5, 5-HT2a (Homo sapiens, UniProt P28223); assay: Radioligand binding, 5-HT2a ([3H]Ketanserin); conditions: Table 4; [3H]Ketanserin 1 nM; read-out: Binding affinity, IC50 (nM) 5-HT2a
T5 construct: purchased Euroscreen/BioSignal Packard Inc
T5 sequence (P28223 whole entry): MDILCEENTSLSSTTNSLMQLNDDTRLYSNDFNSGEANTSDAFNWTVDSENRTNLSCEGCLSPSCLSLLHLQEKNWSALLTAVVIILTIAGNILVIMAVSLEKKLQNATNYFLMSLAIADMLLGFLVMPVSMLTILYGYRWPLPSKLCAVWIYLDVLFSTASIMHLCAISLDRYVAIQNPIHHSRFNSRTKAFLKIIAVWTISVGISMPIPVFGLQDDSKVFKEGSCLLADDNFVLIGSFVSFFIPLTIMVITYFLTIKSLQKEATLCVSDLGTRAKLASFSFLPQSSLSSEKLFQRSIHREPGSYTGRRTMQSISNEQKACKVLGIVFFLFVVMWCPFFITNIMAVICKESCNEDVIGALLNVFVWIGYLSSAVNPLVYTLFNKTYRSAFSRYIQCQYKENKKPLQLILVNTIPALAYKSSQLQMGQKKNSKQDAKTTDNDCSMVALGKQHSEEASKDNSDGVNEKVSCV

hD2L = molecular target: T6, hD2L (Homo sapiens, UniProt P14416); assay: Radioligand binding, dopamine D2 ([3H]spiperone); conditions: Table 4; [3H]spiperone 1 nM; read-out: Binding affinity, IC50 (nM) D2
T6 construct: purchased BioSignal Packard Inc., Montreal, Canada
T6 sequence (P14416 whole entry): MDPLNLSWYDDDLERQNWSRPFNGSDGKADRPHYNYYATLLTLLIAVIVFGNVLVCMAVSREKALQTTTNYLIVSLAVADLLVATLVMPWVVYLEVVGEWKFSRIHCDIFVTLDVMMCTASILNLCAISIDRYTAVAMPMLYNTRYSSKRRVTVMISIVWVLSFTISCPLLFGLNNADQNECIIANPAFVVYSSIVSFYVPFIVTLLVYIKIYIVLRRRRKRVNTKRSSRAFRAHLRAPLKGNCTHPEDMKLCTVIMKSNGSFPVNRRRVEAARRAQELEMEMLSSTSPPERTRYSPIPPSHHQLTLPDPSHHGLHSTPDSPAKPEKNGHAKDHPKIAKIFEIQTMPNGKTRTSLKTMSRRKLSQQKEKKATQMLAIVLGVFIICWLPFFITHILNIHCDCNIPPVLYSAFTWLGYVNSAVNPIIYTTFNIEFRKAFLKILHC
Procedure, shortened: as §1

5-HT2c = molecular target: T7, 5-HT2c (Homo sapiens, UniProt P28335); assay: Radioligand binding, 5-HT2c ([3H]Mesulergine); conditions: Table 4; [3H]Mesulergine 1 nM; read-out: Binding affinity, IC50 (nM) 5-HT2c
T7 construct: purchased Euroscreen/BioSignal Packard Inc
T7 sequence (P28335 33-458): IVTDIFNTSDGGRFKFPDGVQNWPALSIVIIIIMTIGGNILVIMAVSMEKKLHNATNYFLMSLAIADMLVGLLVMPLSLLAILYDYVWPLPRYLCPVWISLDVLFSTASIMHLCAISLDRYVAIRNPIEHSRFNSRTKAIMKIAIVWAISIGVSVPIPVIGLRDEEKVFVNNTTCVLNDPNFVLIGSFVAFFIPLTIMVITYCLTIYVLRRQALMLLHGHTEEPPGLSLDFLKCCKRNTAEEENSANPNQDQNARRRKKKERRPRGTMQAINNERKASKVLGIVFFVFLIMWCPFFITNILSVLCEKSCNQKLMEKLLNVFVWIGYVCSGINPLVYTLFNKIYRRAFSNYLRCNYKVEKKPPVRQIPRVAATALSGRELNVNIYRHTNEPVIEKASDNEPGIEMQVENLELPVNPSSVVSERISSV

5-HT1a = molecular target: T8, 5-HT1a (Homo sapiens, UniProt P08908); assay: Radioligand binding, 5-HT1a ([3H]8-OH-DPAT); conditions: Table 4; [3H]8-OH-DPAT 0.5 nM; read-out: Binding affinity, IC50 (nM) 5-HT1a
T8 construct: purchased Euroscreen/BioSignal Packard Inc
T8 sequence (P08908 1-422): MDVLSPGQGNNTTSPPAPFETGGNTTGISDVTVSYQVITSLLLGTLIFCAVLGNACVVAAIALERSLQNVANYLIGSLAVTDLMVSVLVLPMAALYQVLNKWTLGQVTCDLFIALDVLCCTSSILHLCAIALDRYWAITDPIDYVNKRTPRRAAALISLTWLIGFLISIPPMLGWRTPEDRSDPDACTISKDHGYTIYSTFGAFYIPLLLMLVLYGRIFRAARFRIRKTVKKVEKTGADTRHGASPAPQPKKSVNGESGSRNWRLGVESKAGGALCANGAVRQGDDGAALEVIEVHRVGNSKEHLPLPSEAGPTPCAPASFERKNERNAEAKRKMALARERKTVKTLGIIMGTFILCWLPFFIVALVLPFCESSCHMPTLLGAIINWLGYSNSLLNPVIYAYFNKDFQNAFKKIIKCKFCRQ
Procedure, shortened: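 Displacement of the radiolabel is read on purchased receptor membranes. Conditions follow the vendor's standard method.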

[2] = Table 2, 1.87 nM [3H]LSD, 37 C, 60 min, read-out: IC50 (nM), binding affinity to the 5-HT6 receptor
[3] = Table 4, read-out: Binding affinity, IC50 (nM) 5-HT6

SMILES | IC50 (5-HT7) | IC50 (hD3) | IC50 (hD4.2 receptor) | Rotarod deficit (%) (mice; 200 p.o. (dose unit not given)) | Rotarod deficit (%) (mice; 300 p.o. (dose unit not given)) | Rotarod deficit (%) (mice; 400 p.o. (dose unit not given)) | TD50 at 120 min (Rotarod deficit in mice) | IC50 [1, 2] | IC50 [1, 3] | IC50 (D1) | IC50 (5-HT2a) | IC50 (hD2L) | IC50 (5-HT2c) | IC50 (5-HT1a) | binding affinity at 5-HT6 receptor labeled by [3H]LSD, in words [1] | melting point
C[C@@]1(c2ccc(O)cc2)C(=O)c2c(N3CCNCC3)cc(Cl)cc2N(Cc2ccccc2)C1=O [Example 14-2, (R)-1-Benzyl-7-chloro-3-(4-hydroxy-phenyl)-3-methyl-5-piperazin-1-yl-1H-quinoline-2,4-dione] | 9240 nM | 1760 nM | > 10000 nM | 0% | 0% | 0% | > 400 mg/kg | 13.3 nM | 13.3 nM | 1540 nM | 6380 nM | > 10000 nM | > 10000 nM | 5890 nM | – | –
COc1ccc([C@@]2(C)C(=O)c3c(N4CCNCC4)cc(Cl)cc3N(Cc3ccccc3)C2=O)cc1 [Example 13-1, (S)-1-Benzyl-7-chloro-3-(4-methoxy-phenyl)-3-methyl-5-piperazin-1-yl-1H-quinoline-2,4-dione] | 5850 nM | 8930 nM | > 10000 nM | 0% | 0% | 0% | > 400 mg/kg | 1.4 nM | 1.4 nM | 6150 nM | 2510 nM | > 10000 nM | 7740 nM | 5430 nM | significant affinities | –
CC1(c2ccccc2)C(=O)c2c(N3CCNCC3)cc(Cl)cc2N(Cc2ccccc2)C1=O (centres unmarked) [Example 22, 1-Benzyl-7-chloro-3-methyl-3-phenyl-5-piperazin-1-yl-1H-quinoline-2,4-dione] | 5070 nM | 1810 nM | > 10000 nM | 0% | 0% | 0% | > 400 mg/kg | 2.7 nM | 2.3 nM | 5140 nM | 2900 nM | 2450 nM | 1830 nM | 3910 nM | – | –
CN1CCN(c2cc(Cl)cc3c2C(=O)C(C)(c2ccc(O)cc2)C(=O)N3Cc2cccc(N)c2)CC1 (centres unmarked) [Example 10, 1-(3-Amino-benzyl)-7-chloro-3-(4-hydroxy-phenyl)-3-methyl-5-(4-methyl-piperazin-1-yl)-1H-quinoline-2,4-dione] | > 10000 nM | 5370 nM | > 10000 nM | 0% | 0% | 0% | > 400 mg/kg | 6.2 nM | 6.2 nM | > 10000 nM | > 10000 nM | > 10000 nM | > 10000 nM | > 10000 nM | – | –
COc1ccc([C@]2(C)C(=O)c3c(N4CCNCC4)cc(Cl)cc3N(Cc3ccccc3)C2=O)cc1 [Example 13-2, (R)-1-Benzyl-7-chloro-3-(4-methoxy-phenyl)-3-methyl-5-piperazin-1-yl-1H-quinoline-2,4-dione] | 9520 nM | 2580 nM | > 10000 nM | 0% | 0% | 0% | > 400 mg/kg | 9 nM | 9 nM | 5210 nM | 2840 nM | > 10000 nM | 9740 nM | 3280 nM | – | –
CCN1C(=O)C(C)(c2ccc(OC)cc2)C(=O)c2c(N3CCNCC3)cc(Cl)cc21 (centres unmarked) [Example 46, 7-Chloro-1-ethyl-3-(4-methoxy-phenyl)-3-methyl-5-piperazin-1-yl-1H-quinoline-2,4-dione] | 7950 nM | 9410 nM | 9570 nM | – | – | – | – | 49.1 nM | 15.8 nM | 7890 nM | 6360 nM | 8570 nM | 9110 nM | 6700 nM | – | 127 to 129 °C
CC1(c2ccc(O)cc2)C(=O)c2c(N3CCNCC3)cc(Cl)cc2N(Cc2ccc3ccccc3n2)C1=O (centres unmarked) [Example 45, 7-Chloro-3-(4-hydroxy-phenyl)-3-methyl-5-piperazin-1-yl-1-quinolin-2-ylmethyl-1H-quinoline-2,4-dione] | 9450 nM | 9160 nM | 8510 nM | – | – | – | – | 11.4 nM | 16.4 nM | 8410 nM | > 10000 nM | 7680 nM | > 1000 nM | > 10000 nM | – | 278 to 279 °C
CC1(c2ccc(Br)cc2)C(=O)c2c(N3CCNCC3)cc(Cl)cc2N(Cc2ccccc2)C1=O (centres unmarked) [Example 20, 1-Benzyl-3-(4-bromo-phenyl)-7-chloro-3-methyl-5-piperazin-1-yl-1H-quinoline-2,4-dione] | 6840 nM | 9380 nM | 8990 nM | – | – | – | – | 1.9 nM | 18.2 nM | 8540 nM | 5700 nM | 8250 nM | > 10000 nM | 6360 nM | significant affinities | 116 to 117 °C
COc1ccc(C2(C)C(=O)c3c(N4CCNCC4)cc(Cl)cc3N(Cc3cccc(N)c3)C2=O)cc1 (centres unmarked) [Example 25, 1-(3-Amino-benzyl)-7-chloro-3-(4-methoxy-phenyl)-3-methyl-5-piperazin-1yl-1H-quinoline-2,4-dione] | 8050 nM | 9660 nM | 9750 nM | – | – | – | – | 6.2 nM | 15.9 nM | 6520 nM | 6610 nM | 7650 nM | 7600 nM | 5890 nM | – | 183 to 184 °C
